One series relates to Spodoptera litura. Nature of the series: Antifeedant activity against Spodoptera litura third-instar larvae fed on compound treated fresh sweet potato leaves by dual choice leaf disk assay. The series is classed as functional.
The nature of series [1]: Lipophilicity of the compound assessed as retardation factor using hexane-ethyl acetate solvent system (5:2) on silica gel TLC plate system. Type of series: physicochemical. To be noted: hexane-ethyl acetate (5:2).
For a further series, the system named is Daphnia magna. Nature of the series: Toxicity against Daphnia magna after 12 hr post compound treatment. The series is classed as organism-based. The conditions noted are these: in vivo.

The values that follow come from ChEMBL document CHEMBL3045302, “Structure-activity Relationship for the Insect Antifeedant Activity of Benzofuran Derivatives” (Biosci Biotechnol Biochem, 1999).

As for `C=C(C)C1Cc2c(cc(OC)c(C(C)=O)c2OC)O1` (centres undefined), in the series on Spodoptera litura, the ED50 was determined as 2.8 ×10⁻⁸ mol/cm2 and the pED50 stood at 7.55. Further, the Rf in series [1] came to 0.52.

Turning to `C=C(C)C1Cc2c(OC)cc(OC)c(C(C)=O)c2O1` (centres undefined), in the series with Daphnia magna, the LD50 amounted to 9.1 ppm. In the series with Spodoptera litura, this compound showed an ED50 of 5.4 ×10⁻⁹ mol/cm2 and a pED50 of 8.27. For the same compound, in series [1], the Rf is 0.24.

As to `C=C(C)C1Cc2cc(C(C)=O)c(OC)cc2O1` (centres undefined), in the series on Spodoptera litura, the ED50 turned out to be 4.2 ×10⁻⁸ mol/cm2 and the pED50 is 7.38. The Rf in series [1] is listed as 0.62.

In the case of `C=C(C)C1Cc2c(OC)c(OC)c(OC)c(C(C)=O)c2O1` (centres undefined), in the series with Spodoptera litura, the ED50 came to 1.6 ×10⁻⁸ mol/cm2 and the pED50 is reported as 7.8. In addition, in series [1], the Rf is on record as 0.52.

As to `COc1cc2c(c(OC)c1C(C)=O)CC(C(C)C)O2` (centres undefined), in the series with Spodoptera litura, the ED50 was 7.6 ×10⁻⁸ mol/cm2 and the pED50 is 7.12. Besides, the Rf in series [1] is 0.58.

In the series on Spodoptera litura, `C=C(C)C1Cc2c(cc(OC)c(C(C)O)c2OC)O1` (centres undefined) showed an ED50 of 1.1 ×10⁻⁷ mol/cm2 and a pED50 of 6.96. In series [1], the Rf was found to be 0.83.

On to `C=C(C)C1Cc2ccccc2O1` (centres undefined), for which, in the series on Spodoptera litura, the ED50 was determined as 1.1 umol/cm2 and the pED50 amounted to 5.96. Moreover, in series [1], the Rf is given as 0.92.

In the series on Spodoptera litura, `C=C(C)C1Cc2c(OC)cc(OC)cc2O1` (centres undefined) came in with an ED50 of 5.3 ×10⁻⁸ mol/cm2 and a pED50 of 7.28. Further, in series [1], the Rf amounted to 0.82.

With `C=C(C)C1Cc2ccc(OC)cc2O1` (centres undefined), in the series on Spodoptera litura, the ED50 came to 6.3 ×10⁻⁷ mol/cm2 and the pED50 is listed as 6.2. Also, the Rf in series [1] is 0.86.

In the series with Spodoptera litura, `C=C(C)C1Cc2cc(OC)ccc2O1` (centres undefined) had an ED50 of 1.3 ×10⁻⁷ mol/cm2 and a pED50 of 6.89. For the same compound, in series [1], the Rf is on record as 0.84.

In the series on Spodoptera litura, `C=C(C)C1Cc2c(cc(OC)c(OC)c2OC)O1` (centres undefined) had an ED50 of 5.6 ×10⁻⁸ mol/cm2 and a pED50 of 7.25. The Rf in series [1] is 0.68.

In the series on Spodoptera litura, `C=C(C)C1Cc2cc(C(C)=O)ccc2O1` (racemic) had an ED50 of 7.4 ×10⁻⁸ mol/cm2 and a pED50 of 7.13. Besides, the Rf in series [1] turned out to be 0.61.

For `C=C(C)C1Cc2c(cc(OC)c(C(C)=O)c2O)O1` (racemic), in the series on Spodoptera litura, the ED50 was 7.1 ×10⁻⁸ mol/cm2 and the pED50 is 7.15. Besides, the Rf in series [1] worked out at 0.51.

In the series on Spodoptera litura, `C=C(C)c1cc2cc(C(C)=O)c(O)cc2o1` [EUPARIN] returned an ED50 of 1.2 ×10⁻⁹ mol/cm2 and a pED50 of 5.92. The Rf in series [1] is on record as 0.76.

Regarding `C=C(C)c1cc2cc(C(C)=O)c(OC)cc2o1` [MethylEuparin], in the series on Spodoptera litura, the ED50 worked out at 6.1 ×10⁻⁸ mol/cm2 and the pED50 is 7.21. The Rf in series [1] stood at 0.66.

In the series on Spodoptera litura, `C=C(C)[C@@H]1Cc2c(cc(OC)c(C(C)=O)c2O)O1` [REMIROL] yielded an ED50 of 1.3 ×10⁻⁷ mol/cm2 and a pED50 of 6.89. In addition, in series [1], the Rf is recorded as 0.51.
